The values below come from patent US20070021508A1, “Method for treatment of Helicobacter pylori infection and/or an associated disease” (priority 2005, published 2007).

≈ marks a conversion by molar mass, not a printed value.

Usually MIC stands for the smallest concentration in the dilution series that meets the test's criterion for growth inhibition. Read a low MIC as greater potency.

In data set [1] the test system is H. pylori ATCC43504 (HP 43504). The experiment in a line: Minimum inhibitory concentration (MIC) against HP 43504. Type of data set: cell-based. To be noted: Helicobacter pylori. The procedure:
(§1) The HP strains used in the present studies are H. pylori ATCC43504 (HP 43504) and HP 238. HP 238 was isolated from a patient with MALToma in National Cheng Kung University Hospital, Tainan, Taiwan, and used as an antibiotic sensitive control. These strains were cultured under a microaerophilic condition (O2 5%, CO2 10%, N2 85%) in a 37° C. chamber.

In data set [2] the test system is HP 238. The experiment in a line: Minimum inhibitory concentration (MIC) against HP 238. The class given is cell-based. To be noted: Helicobacter pylori; against clinically isolated strain HP 238. The procedure:
as §1

In data set [3] the test system is HP 43504. The experiment in a line: Disc diffusion assay against HP for PB plus various antibiotics, HP 43504. Type of data set: cell-based, Helicobacter pylori. To be noted: HP 43504, CDC agar, 8 mm disc, 48 hours; AMO 0.015 μg/20 μl, MTZ 5 μg/20 μl, TC 0.5 μg/20 μl, plus 20 μl water or 4-PB 2 mg/20 μl. The procedure: HP 43504 and […] were further used for testing PB in combination with various antibiotics in disc diffusion assays. After 2 days' pre-culture in a microaerophilic condition (O2 5%, CO2 10%, N2 85%) at 37° C., HP was suspended in a Brucella broth containing 5% sucrose to adjust its clone density at 1×10^8 CFU/ml. Then 100 μl of the bacterial suspension was inoculated onto a CDC agar plate. […] The agar plates were later transferred to a microaerobic jar to incubate at 37° C. The diameter of each inhibition zone (clear zone size) in the bacterial lawn was measured 48 hours later. The tested combinations used in this experiment comprised 4-PB (50 mg/ml) with amoxicillin (AMO), metronidazole (MTZ) or tetracycline (TC).

In data set [4] the test system is HP 238. The experiment in a line: Disc diffusion assay against HP for PB plus various antibiotics, HP 238. To be noted: HP 238, CDC agar, 8 mm disc, 48 hours; AMO 0.015 μg/20 μl, MTZ 5 μg/20 μl, TC 0.5 μg/20 μl, plus 20 μl water or 4-PB 2 mg/20 μl. The class given is cell-based, Helicobacter pylori. How it is done:
HP 43504 and HP 2378 were further used for testing PB in combination with various antibiotics in disc diffusion assays. After 2 days' pre-culture in a microaerophilic condition (O2 5%, CO2 10%, N2 85%) at 37° C., HP was suspended in a Brucella broth containing 5% sucrose to adjust its clone density at 1×10^8 CFU/ml. Then 100 μl of the bacterial suspension was inoculated onto a CDC agar plate. […] The agar plates were later transferred to a microaerobic jar to incubate at 37° C. The diameter of each inhibition zone (clear zone size) in the bacterial lawn was measured 48 hours later. […]
On the technique in general: A growth-free zone around the sample is the usual read-out of agar diffusion tests.

Data set [5] relates to HP 43504. Put plainly: Disc diffusion assay against HP for various compounds, HP 43504. The class given is cell-based, Helicobacter pylori. To be noted: for Disc diffusion diameter: 40 μl on 8 mm disc, 48 hours; for anti-HP activity compared to other compounds: HP 43504 lawn, disc diffusion.
In data set [6] the test system is HP 238. Put plainly: Disc diffusion assay against HP for various compounds, HP 238. The class given is cell-based, Helicobacter pylori. To be noted: for Disc diffusion diameter: 40 μl on 8 mm disc, 48 hours; for anti-HP activity compared to other compounds: HP 238 lawn, disc diffusion.
For data set [7] the following is noted: ornithine transcarbamylase-deficient patients, median dose 352 mg/kg/day, 26-month follow-up; cited from earlier work.
The mark [8] stands for this setting: HP 43504, 100 mg/ml, no clear zone outside the paper disc.
Where [9] appears, read: HP 43504, Brucella agar, 100 mg/ml.
The mark [10] stands for this setting: HP 238, 100 mg/ml, no clear zone outside the paper disc.
Where [11] appears, read: HP 238, Brucella agar, 100 mg/ml.
The mark [12] stands for this setting: HP 43504, Brucella agar, 50 mg/ml.
Setting [13] is: HP 238, Brucella agar, 50 mg/ml.

Take `Cc1ncc([N+](=O)[O-])n1CCO` [metronidazole]: the MIC in data set [1] is 256 µg/mL (≈ 1500 µM); in the data set with HP 238 [2] it was 0.25 µg/mL (≈ 1.46 µM). The figures for the “diameter of inhibition zone (clear zone size)” value (shortened to “diameter of inhibition zone”) with HP 43504 [3] and with HP 238 [4] were 8 mm and 16 mm, respectively.
Consider `NCCCC(=O)O` [GABA, gama-aminobutyric acid], for which the anti-HP activity result in the data set with HP 43504 [5] (setting [8]) and with HP 238 [6] (setting [10]) was “no obvious anti-HP activity” throughout. Besides, the Disc diffusion diameter in the data set with HP 43504 [5] (setting [9]) is 8 mm; with HP 43504 [5] (HP 43504, CDC agar, 100 mg/ml) it was 8 mm; in the data set with HP 238 [6] (setting [11]), 8 mm; in the data set on HP 238 [6] (HP 238, CDC agar, 100 mg/ml), 8 mm.
As to `CN(C)[C@@H]1C(O)=C(C(N)=O)C(=O)[C@@]2(O)C(O)=C3C(=O)c4c(O)cccc4[C@@](C)(O)[C@H]3C[C@@H]12` [tetracycline], in data set [1], the minimum inhibitory concentration (MIC) is 1 µg/mL (≈ 2.25 µM). Further, the “diameter of inhibition zone” value came out at 8 mm in the data set on HP 43504 [3] and 15 mm in the data set with HP 238 [4].
For `CCCC(=O)[O-].[Na+]` [Butyrate, Sodium butyrate], the Disc diffusion diameter with HP 43504 [5] (HP 43504, CDC agar, 50 mg/ml) was 8 mm; in the data set on HP 238 [6] (HP 238, CDC agar, 50 mg/ml) it was 11 mm. The disc diffusion capacity result with HP 43504 [5] (HP 43504, compared with 4-PB or 2-PB) is recorded as “much smaller than 4-PB or 2-PB”; in the data set with HP 238 [6] (HP 238, compared with 4-PB or 2-PB), “much smaller than 4-PB or 2-PB”.
Take `CCC(C(=O)O)c1ccccc1` (centres unmarked) [2-PB, 2-phenylbutyrate]: the Disc diffusion diameter is recorded as 18 mm with HP 43504 [5] (setting [12]); 8 mm in the data set on HP 43504 [5] (HP 43504, CDC agar, 50 mg/ml); 24 mm in the data set on HP 238 [6] (setting [13]); 14 mm in the data set with HP 238 [6] (HP 238, CDC agar, 50 mg/ml). The “anti-HP activity compared to other compounds” value in the data set with HP 43504 [5] and in the data set on HP 238 [6] was “much better anti-HP activity” throughout.
As for `CCCC(CCC)C(=O)[O-].[Na+]` [Valproate, sodium valproate], the anti-HP activity result in the data set on HP 43504 [5] (HP 43504, 2 mg/ml to 16 mg/ml) was “no obvious anti-HP activity”; with HP 238 [6] (HP 238, 2 mg/ml to 16 mg/ml) it was “no obvious anti-HP activity”. For the same compound, the Disc diffusion diameter in the data set on HP 43504 [5] (HP 43504, CDC agar, 2 mg/ml) amounted to 8 mm; with HP 43504 [5] (HP 43504, CDC agar, 4 mg/ml), 8 mm; in the data set on HP 43504 [5] (HP 43504, CDC agar, 8 mg/ml) it was 8 mm; in the data set with HP 43504 [5] (HP 43504, CDC agar, 16 mg/ml), 8 mm; in the data set on HP 238 [6] (HP 238, CDC agar, 2 mg/ml), 8 mm; with HP 238 [6] (HP 238, CDC agar, 4 mg/ml) it was 8 mm. The Disc diffusion diameter in the data set with HP 238 [6] (HP 238, CDC agar, 8 mg/ml) stood at 8 mm; with HP 238 [6] (HP 238, CDC agar, 16 mg/ml), 8 mm.
Consider `CCC(N)C(=O)O` (centres unmarked) [2-AB, 2-aminobutyric acid], for which the anti-HP activity result in the data set with HP 43504 [5] (setting [8]) and in the data set on HP 238 [6] (setting [10]) was “no obvious anti-HP activity” in each case. Further, the Disc diffusion diameter was 8 mm in the data set with HP 43504 [5] (setting [9]); 8 mm in the data set with HP 43504 [5] (HP 43504, CDC agar, 100 mg/ml); 8 mm with HP 238 [6] (setting [11]); 8 mm with HP 238 [6] (HP 238, CDC agar, 100 mg/ml).
As to `CC1(C)S[C@@H]2[C@H](NC(=O)[C@H](N)c3ccc(O)cc3)C(=O)N2[C@H]1C(=O)O` [amoxicillin], it took 0.12 µg/mL (≈ 0.328 µM) to inhibit growth in data set [1] (MIC). Moreover, the “diameter of inhibition zone” value in the data set with HP 43504 [3] and in the data set on HP 238 [4] was 8 mm each time.
As to 4-phenylbutyrate [4-PB], the Disc diffusion diameter is reported as 8 mm in the data set with HP 43504 [5] (HP 43504, Brucella agar, 5 mg/ml); 8 mm in the data set on HP 43504 [5] (HP 43504, Brucella agar, 25 mg/ml); 33 mm with HP 43504 [5] (setting [12]); 45 mm with HP 43504 [5] (setting [9]); 8 mm with HP 43504 [5] (HP 43504, CDC agar, 5 mg/ml); 8 mm with HP 43504 [5] (HP 43504, CDC agar, 25 mg/ml). Also, the Disc diffusion diameter in the data set with HP 43504 [5] (HP 43504, CDC agar, 50 mg/ml) is listed as 17 mm; in the data set with HP 238 [6] (HP 238, Brucella agar, 5 mg/ml), 8 mm; with HP 238 [6] (HP 238, Brucella agar, 25 mg/ml), 26 mm; in the data set on HP 238 [6] (setting [13]), 40 mm; in the data set on HP 238 [6] (setting [11]), 64 mm; with HP 238 [6] (HP 238, CDC agar, 5 mg/ml), 8 mm. In addition, the Disc diffusion diameter in the data set on HP 238 [6] (HP 238, CDC agar, 25 mg/ml) is 9 mm; in the data set with HP 238 [6] (HP 238, CDC agar, 50 mg/ml), 23 mm. Moreover, the “anti-HP activity compared to other compounds” value in the data set with HP 43504 [5] and with HP 238 [6] was “much better anti-HP activity” each time. Moreover, the “side effects related to therapy” value in data set [7] was “neither hyperammonemic episodes requiring hospitalization nor side effects related to therapy occurred”.
Consider `NCCC(N)C(=O)O` (centres unmarked) [2,4-DAB, 2,4-diaminobutyric acid], for which the anti-HP activity entry in the data set on HP 43504 [5] (setting [8]) and in the data set on HP 238 [6] (setting [10]) was “no obvious anti-HP activity” in each case. In addition, the Disc diffusion diameter amounted to 8 mm in the data set with HP 43504 [5] (setting [9]); 8 mm in the data set with HP 43504 [5] (HP 43504, CDC agar, 100 mg/ml); 8 mm in the data set with HP 238 [6] (setting [11]); 8 mm in the data set with HP 238 [6] (HP 238, CDC agar, 100 mg/ml).
